Data taken from patent US8933039B2 (NPS Pharmaceuticals, Inc., priority 1995, dated 2015).
Non-standard residues stand in square brackets, D forms with d. Phg = N[C@H](C(=O)O)c1ccccc1; Nva = CCC[C@H](N)C(=O)O; Aib = CC(C)(N)C(=O)O; βAla = NCCC(=O)O

Experiments:
[1] = system: dipeptidyl peptidase IV (DPP-IV); assay: human placental DPP-IV (Calbiochem), 0.125 mU, added to test peptide in PBS at pH 7.4; conditions: 37° C., up to 24 hours
CD1 mice = assay: Intestinotrophic activity assessment: small bowel weight in mice; format: in vivo; conditions: for % Activity (small bowel inducing activity relative to native rat GLP-2(1-33) = 100%): mice, as Example 4
Procedure, shortened: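 Female CD1 mice, 6 weeks old (n=3-4/group), given 2.5 μg peptide s.c. b.i.d. in PBS; sacrificed 10 or 14 days later after ≥20 h fast. Small bowel (pylorus to cecum) weighed; percent change versus vehicle mice, also expressed relative to rat GLP-2(1-33) set as 100%.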

DPP-IV = DPP-IV (Homo sapiens, UniProt P27487); assay: Assay for resistance to dipeptidyl peptidase IV (RP-HPLC of cleavage product); conditions: human, isolated human placental DPP-IV (dipeptidyl peptidase IV), pH 7.4, % Cleaved by DPP-IV, as Example 3: human placental DPP-IV, 37° C., PBS pH 7.4
Sequence of DPP-IV (P27487 whole entry): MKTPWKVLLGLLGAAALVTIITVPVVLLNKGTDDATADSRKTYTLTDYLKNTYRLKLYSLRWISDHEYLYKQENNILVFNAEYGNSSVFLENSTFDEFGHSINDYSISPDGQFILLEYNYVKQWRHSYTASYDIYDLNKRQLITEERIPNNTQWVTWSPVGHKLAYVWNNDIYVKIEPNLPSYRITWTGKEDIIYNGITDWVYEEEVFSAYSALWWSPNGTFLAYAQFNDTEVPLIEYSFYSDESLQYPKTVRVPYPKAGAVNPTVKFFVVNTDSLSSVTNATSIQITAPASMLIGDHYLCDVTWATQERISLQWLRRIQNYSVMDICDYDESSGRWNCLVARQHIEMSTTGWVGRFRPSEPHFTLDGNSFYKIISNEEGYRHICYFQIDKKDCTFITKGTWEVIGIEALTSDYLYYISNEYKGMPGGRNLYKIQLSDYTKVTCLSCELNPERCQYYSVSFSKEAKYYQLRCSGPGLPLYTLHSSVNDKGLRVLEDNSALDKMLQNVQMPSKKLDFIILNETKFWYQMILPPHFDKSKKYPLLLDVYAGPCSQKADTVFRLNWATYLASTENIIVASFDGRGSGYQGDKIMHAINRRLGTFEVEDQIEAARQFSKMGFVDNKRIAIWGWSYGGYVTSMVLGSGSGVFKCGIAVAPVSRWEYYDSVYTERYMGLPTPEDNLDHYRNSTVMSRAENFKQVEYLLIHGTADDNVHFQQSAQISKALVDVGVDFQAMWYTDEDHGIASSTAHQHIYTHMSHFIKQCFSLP
Description: The mixture was incubated at 37° C. in a circulating water bath for 24 hours. The incubation was quenched by the addition of 50 μl of a solution of diprotin A prepared at a concentration of 4 mg/ml in PBS. Each peptide was tested in duplicate.
Each sample was analyzed by reverse-phase (RP) HPLC as follows: 90 μl of the quenched incubation mixture was injected onto a Rainin Dynamax 300 Å, C18, 5 micron, 4.6×250 millimeter column. The samples were eluted with 0.1% trifluoroacetic acid (TFA) in water modified with 0.1% acetonitrile using a linear gradient and a flow rate of 1 ml per minute. Sample components were detected at 214 nanometers (nm). The extent of cleavage was measured by relative integration of the peak corresponding to the cleavage product compared to that of the remaining undigested parent peptide.

not cleaved [1]	Compound	other results
0% cleaved by DPP-IV	[Aib2]hGLP-2(1-33) (H-H[Aib]DGSFSDEMNTILDNLAARDFINWLIQTKITD-OH; SMILES CC[C@H](C)[C@H](NC(=O)[C@H](Cc1ccccc1)NC(=O)[C@H](CC(=O)O)NC(=O)[C@H](CCCNC(=N)N)NC(=O)[C@H](C)NC(=O)[C@H](C)NC(=O)[C@H](CC(C)C)NC(=O)[C@H](CC(N)=O)NC(=O)[C@H](CC(=O)O)NC(=O)[C@H](CC(C)C)NC(=O)[C@@H](NC(=O)[C@@H](NC(=O)[C@H](CC(N)=O)NC(=O)[C@H](CCSC)NC(=O)[C@H](CCC(=O)O)NC(=O)[C@H](CC(=O)O)NC(=O)[C@H](CO)NC(=O)[C@H](Cc1ccccc1)NC(=O)[C@H](CO)NC(=O)CNC(=O)[C@H](CC(=O)O)NC(=O)C(C)(C)NC(=O)[C@@H](N)Cc1c[nH]cn1)[C@@H](C)O)[C@@H](C)CC)C(=O)N[C@@H](CC(N)=O)C(=O)N[C@@H](Cc1c[nH]c2ccccc12)C(=O)N[C@@H](CC(C)C)C(=O)N[C@H](C(=O)N[C@@H](CCC(N)=O)C(=O)N[C@H](C(=O)N[C@@H](CCCCN)C(=O)N[C@H](C(=O)N[C@H](C(=O)N[C@@H](CC(=O)O)C(=O)O)[C@@H](C)O)[C@@H](C)CC)[C@@H](C)O)[C@@H](C)CC)	
0% cleaved by DPP-IV	[Arg-l]ratGLP-2(-1-33) (H-RHADGSFSDEMNTILDNLATRDFINWLIQTKITD-OH)	
0% cleaved by DPP-IV	[Val2]GLP-2(1-33)	
0% cleaved by DPP-IV	[PhGly2]hGLP-2(1-33) (H-H[Phg]DGSFSDEMNTILDNLAARDFINWLIQTKITD-OH; SMILES CC[C@H](C)[C@H](NC(=O)[C@H](Cc1ccccc1)NC(=O)[C@H](CC(=O)O)NC(=O)[C@H](CCCNC(=N)N)NC(=O)[C@H](C)NC(=O)[C@H](C)NC(=O)[C@H](CC(C)C)NC(=O)[C@H](CC(N)=O)NC(=O)[C@H](CC(=O)O)NC(=O)[C@H](CC(C)C)NC(=O)[C@@H](NC(=O)[C@@H](NC(=O)[C@H](CC(N)=O)NC(=O)[C@H](CCSC)NC(=O)[C@H](CCC(=O)O)NC(=O)[C@H](CC(=O)O)NC(=O)[C@H](CO)NC(=O)[C@H](Cc1ccccc1)NC(=O)[C@H](CO)NC(=O)CNC(=O)[C@H](CC(=O)O)NC(=O)[C@@H](NC(=O)[C@@H](N)Cc1c[nH]cn1)c1ccccc1)[C@@H](C)O)[C@@H](C)CC)C(=O)N[C@@H](CC(N)=O)C(=O)N[C@@H](Cc1c[nH]c2ccccc12)C(=O)N[C@@H](CC(C)C)C(=O)N[C@H](C(=O)N[C@@H](CCC(N)=O)C(=O)N[C@H](C(=O)N[C@@H](CCCCN)C(=O)N[C@H](C(=O)N[C@H](C(=O)N[C@@H](CC(=O)O)C(=O)O)[C@@H](C)O)[C@@H](C)CC)[C@@H](C)O)[C@@H](C)CC)	
0% cleaved by DPP-IV	[bAla2]hGLP-2(1-33) (H-H[βAla]DGSFSDEMNTILDNLAARDFINWLIQTKITD-OH; SMILES CC[C@H](C)[C@H](NC(=O)[C@H](Cc1ccccc1)NC(=O)[C@H](CC(=O)O)NC(=O)[C@H](CCCNC(=N)N)NC(=O)[C@H](C)NC(=O)[C@H](C)NC(=O)[C@H](CC(C)C)NC(=O)[C@H](CC(N)=O)NC(=O)[C@H](CC(=O)O)NC(=O)[C@H](CC(C)C)NC(=O)[C@@H](NC(=O)[C@@H](NC(=O)[C@H](CC(N)=O)NC(=O)[C@H](CCSC)NC(=O)[C@H](CCC(=O)O)NC(=O)[C@H](CC(=O)O)NC(=O)[C@H](CO)NC(=O)[C@H](Cc1ccccc1)NC(=O)[C@H](CO)NC(=O)CNC(=O)[C@H](CC(=O)O)NC(=O)CCNC(=O)[C@@H](N)Cc1c[nH]cn1)[C@@H](C)O)[C@@H](C)CC)C(=O)N[C@@H](CC(N)=O)C(=O)N[C@@H](Cc1c[nH]c2ccccc12)C(=O)N[C@@H](CC(C)C)C(=O)N[C@H](C(=O)N[C@@H](CCC(N)=O)C(=O)N[C@H](C(=O)N[C@@H](CCCCN)C(=O)N[C@H](C(=O)N[C@H](C(=O)N[C@@H](CC(=O)O)C(=O)O)[C@@H](C)O)[C@@H](C)CC)[C@@H](C)O)[C@@H](C)CC)	
0% cleaved by DPP-IV	[His2]hGLP-2(1-33) (H-HHDGSFSDEMNTILDNLAARDFINWLIQTKITD-OH)	
0% cleaved by DPP-IV	[Tyr1, Gly2]hGLP-2(1-33) (H-YGDGSFSDEMNTILDNLAARDFINWLIQTKITD-OH)	
0% cleaved by DPP-IV	[Asn2]hGLP-2(1-33) (H-HNDGSFSDEMNTILDNLAARDFINWLIQTKITD-OH)	
0% cleaved by DPP-IV	[Glu2]hGLP-2(1-33) (H-HEDGSFSDEMNTILDNLAARDFINWLIQTKITD-OH)	
0% cleaved by DPP-IV	[Gly2]hGLP-2(1-33)	
0% cleaved by DPP-IV	[Lys2]hGLP-2(1-33) (H-HKDGSFSDEMNTILDNLAARDFINWLIQTKITD-OH)	
0% cleaved by DPP-IV	[Gly2,Ala24]hGLP-2(1-33) (H-HGDGSFSDEMNTILDNLAARDFIAWLIQTKITD-OH)	
0% cleaved by DPP-IV	[Gly2, Tyr34]hGLP-2(1-34)	
	[Thr^19]hGLP-2(1-33) (H-HADGSFSDEMNTILDNLATRDFINWLIQTKITD-OH)	cleaved bond [1]: Ala2-Asp3, 24 hours
0% cleaved by DPP-IV	[Tyr2]hGLP-2(1-33) (H-HYDGSFSDEMNTILDNLAARDFINWLIQTKITD-OH)	
0% cleaved by DPP-IV	[Gly2, Arg34]hGLP-2(1-34)	
0% cleaved by DPP-IV	[Phe2]hGLP-2(1-33) (H-HFDGSFSDEMNTILDNLAARDFINWLIQTKITD-OH)	
0% cleaved by DPP-IV	[Thr2]hGLP-2(1-33) (H-HTDGSFSDEMNTILDNLAARDFINWLIQTKITD-OH)	
0% cleaved by DPP-IV	[D-Ala2]hGLP-2(1-33)	
0% cleaved by DPP-IV	[Pro1]hGLP-2(1-33) (H-PADGSFSDEMNTILDNLAARDFINWLIQTKITD-OH)	
0% cleaved by DPP-IV	[Gly2,Ala4]hGLP-2(1-33) (H-HGDASFSDEMNTILDNLAARDFINWLIQTKITD-OH)	
0% cleaved by DPP-IV	[Gly2,Ala5]hGLP-2(1-33) (H-HGDGAFSDEMNTILDNLAARDFINWLIQTKITD-OH)	
0% cleaved by DPP-IV	[Asp2]hGLP-2(1-33) (H-HDDGSFSDEMNTILDNLAARDFINWLIQTKITD-OH)	
0% cleaved by DPP-IV	[Arg-2,Arg-1]ratGLP-2(2-33)	
0% cleaved by DPP-IV	[Nval2]hGLP-2(1-33) (H-H[Nva]DGSFSDEMNTILDNLAARDFINWLIQTKITD-OH; SMILES CCC[C@H](NC(=O)[C@@H](N)Cc1c[nH]cn1)C(=O)N[C@@H](CC(=O)O)C(=O)NCC(=O)N[C@@H](CO)C(=O)N[C@@H](Cc1ccccc1)C(=O)N[C@@H](CO)C(=O)N[C@@H](CC(=O)O)C(=O)N[C@@H](CCC(=O)O)C(=O)N[C@@H](CCSC)C(=O)N[C@@H](CC(N)=O)C(=O)N[C@H](C(=O)N[C@H](C(=O)N[C@@H](CC(C)C)C(=O)N[C@@H](CC(=O)O)C(=O)N[C@@H](CC(N)=O)C(=O)N[C@@H](CC(C)C)C(=O)N[C@@H](C)C(=O)N[C@@H](C)C(=O)N[C@@H](CCCNC(=N)N)C(=O)N[C@@H](CC(=O)O)C(=O)N[C@@H](Cc1ccccc1)C(=O)N[C@H](C(=O)N[C@@H](CC(N)=O)C(=O)N[C@@H](Cc1c[nH]c2ccccc12)C(=O)N[C@@H](CC(C)C)C(=O)N[C@H](C(=O)N[C@@H](CCC(N)=O)C(=O)N[C@H](C(=O)N[C@@H](CCCCN)C(=O)N[C@H](C(=O)N[C@H](C(=O)N[C@@H](CC(=O)O)C(=O)O)[C@@H](C)O)[C@@H](C)CC)[C@@H](C)O)[C@@H](C)CC)[C@@H](C)CC)[C@@H](C)CC)[C@@H](C)O)	
0% cleaved by DPP-IV	[Pro3]hGLP-2(1-33) (H-HAPGSFSDEMNTILDNLAARDFINWLIQTKITD-OH)	
0% cleaved by DPP-IV	[Ser2]hGLP-2(1-33) (H-HSDGSFSDEMNTILDNLAARDFINWLIQTKITD-OH)	
	CC[C@H](C)[C@H](NC(=O)[C@H](Cc1ccccc1)NC(=O)[C@H](CC(=O)O)NC(=O)[C@H](CCCNC(=N)N)NC(=O)[C@H](C)NC(=O)[C@H](C)NC(=O)[C@H](CC(C)C)NC(=O)[C@H](CC(N)=O)NC(=O)[C@H](CC(=O)O)NC(=O)[C@H](CC(C)C)NC(=O)[C@@H](NC(=O)[C@@H](NC(=O)[C@H](CC(N)=O)NC(=O)[C@H](CCSC)NC(=O)[C@H](CCC(=O)O)NC(=O)[C@H](CC(=O)O)NC(=O)[C@H](CO)NC(=O)[C@H](Cc1ccccc1)NC(=O)[C@H](CO)NC(=O)CNC(=O)[C@H](CC(=O)O)NC(=O)[C@@H](C)NC(=O)[C@@H](N)Cc1c[nH]cn1)[C@@H](C)O)[C@@H](C)CC)C(=O)N[C@@H](CC(N)=O)C(=O)N[C@@H](Cc1c[nH]c2ccccc12)C(=O)N[C@@H](CC(C)C)C(=O)N[C@H](C(=O)N[C@@H](CCC(N)=O)C(=O)N[C@H](C(=O)N[C@@H](CCCCN)C(=O)N[C@H](C(=O)N[C@H](C(=O)N[C@@H](CC(=O)O)C(=O)O)[C@@H](C)O)[C@@H](C)CC)[C@@H](C)O)[C@@H](C)CC [[D-Ala2]hGLP-2(1-33)]	% Activity (small bowel inducing activity relative to native rat GLP-2(1-33) = 100%) (CD1 mice): 130%; metabolised at 24 h, 0.19 mg/ml (DPP-IV): 0%
	H-AGDGSFSDEMNTILDNLAARDFINWLIQTKITD-OH [[Ala1,Gly2]hGLP-2(1-33)]	% Increase in small bowel weight (CD1 mice; CD1 mice, 2.5 μg peptide s.c. b.i.d. in PBS, sacrificed 10 or 14 days, relative to vehicle only): 23%; % Activity (small bowel inducing activity relative to native rat GLP-2(1-33) = 100%) (CD1 mice): 53%; metabolised at 24 h, 0.19 mg/ml (DPP-IV): 0%
